Source: patent US6884415B2, “Antioxidation food product, antioxidation preparation and antioxidation method” (Otsuka Pharmaceutical Co., Ltd., priority 1993, dated 2005)

Target: T1, MPO (myeloperoxidase) (Homo sapiens, UniProt P05164)
T1 sequence (P05164 49-745): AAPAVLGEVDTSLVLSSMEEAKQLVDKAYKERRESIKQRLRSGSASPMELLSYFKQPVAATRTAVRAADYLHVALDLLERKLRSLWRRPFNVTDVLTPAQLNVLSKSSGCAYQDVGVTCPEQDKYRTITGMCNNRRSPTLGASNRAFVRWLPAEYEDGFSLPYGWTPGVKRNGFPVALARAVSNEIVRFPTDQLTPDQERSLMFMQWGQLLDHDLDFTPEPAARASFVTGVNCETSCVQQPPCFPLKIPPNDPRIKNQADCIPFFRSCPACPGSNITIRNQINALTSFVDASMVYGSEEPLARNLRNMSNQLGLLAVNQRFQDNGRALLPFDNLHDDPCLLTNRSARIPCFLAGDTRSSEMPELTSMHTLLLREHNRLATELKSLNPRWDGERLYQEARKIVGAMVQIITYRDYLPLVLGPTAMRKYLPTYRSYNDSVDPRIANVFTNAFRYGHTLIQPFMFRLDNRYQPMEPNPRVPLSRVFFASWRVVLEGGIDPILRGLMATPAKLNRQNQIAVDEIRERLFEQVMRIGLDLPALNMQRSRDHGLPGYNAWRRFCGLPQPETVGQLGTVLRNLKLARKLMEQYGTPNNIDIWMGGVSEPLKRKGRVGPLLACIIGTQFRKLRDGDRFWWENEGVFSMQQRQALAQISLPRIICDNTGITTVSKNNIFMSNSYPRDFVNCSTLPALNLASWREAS
Assay: MPO (myeloperoxidase) activity inhibition
Type: biochemical
Details: MPO purified enzyme, pH 5.4, 25° C.
Description: To 2.9 ml of a 50 mM phosphate buffer (pH: 5.4) containing 0.1% hydrogen peroxide and 1.03 mM o-dianisidine, 50 μl of a test solution and 50 μl of a MPO purified enzyme (1.24 units/ml) were added and, after incubating in a cuvet at 25° C., measuring a change in absorbance (λ: 450 nm) was measured for 5 minutes. As a blank, 50 μl of a 50 mM phosphate buffer (pH: 5.4) was used.
As the test solution, a tea extract solution obtained by extracting a green tea with hot water and a solution obtained by measuring the concentration of Mn in the tea extract solution and adding MnCl2 in an APT broth so that the concentration of Mn in the medium may be the same as that of the tea extract solution were used. Then, […]
Therefore, it was examined whether the component contained in the tea other than Mn is connected with the MPO activity inhibition or not. That is, according to the same manner as that described above, the MPO inhibition activity was examined using a purified catechin as the component other than Mn.

catechin
concentration at which the MPO inhibition effect is exhibited: ≥ 1.5 µg/mL
